Literature values as cited in patent US20090311315A1, “Multimicroparticulate Oral Pharmaceutical Form with Modified Release of Angiotensin II Receptor Antagonists” (FLAMEL TECHNOLOGIES, S.A., priority 2005, published 2009).

conditions: in vivo

Row | elimination half-life [h] | Compound
1 | 4 to 9 | CCOc1nc2cccc(C(=O)O)c2n1Cc1ccc(-c2ccccc2-c2nnn[nH]2)cc1 [cardesartan]
2 | 5 to 9 | eprosartan cilexitil
3 | 4 to 6 | CCCCC(=O)N(Cc1ccc(-c2ccccc2-c2nnn[nH]2)cc1)[C@H](C(=O)O)C(C)C [valsartan]
